Results taken from PMC12196347, “Evaluating Triazole-Substituted Pyrrolopyrimidines as CSF1R Inhibitors” (Molecules, 2025).
Where two headings read alike, the source gives them in different places.

Columns and labels:
MET (cMet) = biological target: T1, MET (cMet) (Homo sapiens, UniProt P08581); experiment: Kinase panel profiling: MET; format: biochemical; conditions: ATP equal to KM
T1 construct: purchased Thermo Fisher Scientific (Invitrogen) SelectScreen (Z'-LYTE)

PDGFRB (PDGFR beta) = PDGFRB (PDGFR beta) (Homo sapiens, UniProt P09619); experiment: Kinase panel profiling: PDGFRB; format: biochemical; conditions: ATP equal to KM
BLK = biological target: T2, BLK (Homo sapiens, UniProt P51451); experiment: Kinase panel profiling: BLK; format: biochemical; conditions: ATP equal to KM
T2 construct: purchased Thermo Fisher Scientific (Invitrogen) SelectScreen (Z'-LYTE)

cKIT kinase = biological target: T3, cKIT kinase (Homo sapiens, UniProt P10721); experiment: KIT inhibition (KD), TR-FRET tracer displacement; format: binding; conditions: kinase tracer 236, anti-GST antibody Eu-conjugate, read-out: KIT enz. KD
T3 construct: purchased Carna Biosciences

ROCK1 = ROCK1 (Homo sapiens, UniProt Q13464); experiment: Kinase panel profiling: ROCK1; format: biochemical; conditions: ATP equal to KM
MKNK1 (MNK1) = biological target: T4, MKNK1 (MNK1) (Homo sapiens, UniProt Q9BUB5); experiment: Kinase panel profiling: MKNK1; format: biochemical; conditions: ATP equal to KM
T4 construct: purchased Thermo Fisher Scientific (Invitrogen) SelectScreen (Z'-LYTE)

FER = biological target: T5, FER (Homo sapiens, UniProt P16591); experiment: Kinase panel profiling: FER; format: biochemical; conditions: ATP equal to KM
T5 construct: purchased Thermo Fisher Scientific (Invitrogen) SelectScreen (Z'-LYTE)

MDCK permeability assay = format: in vitro ADME, canine; conditions: dog, MDCK cell monolayer
NEK1 = biological target: T6, NEK1 (Homo sapiens, UniProt Q96PY6); experiment: Kinase panel profiling: NEK1; format: biochemical; conditions: ATP equal to KM
T6 construct: purchased Thermo Fisher Scientific (Invitrogen) SelectScreen (Z'-LYTE)

EPHA2 = biological target: T7, EPHA2 (Homo sapiens, UniProt P29317); experiment: Kinase panel profiling: EPHA2; format: biochemical; conditions: ATP equal to KM
T7 construct: purchased Thermo Fisher Scientific (Invitrogen) SelectScreen (Z'-LYTE)

KIT = biological target: T8, KIT (Homo sapiens, UniProt P10721); experiment: Kinase panel profiling: KIT; format: biochemical; conditions: ATP equal to KM
T8 construct: purchased Thermo Fisher Scientific (Invitrogen) SelectScreen (Z'-LYTE)

[1] = Mouse plasma protein binding; format: in vitro ADME; conditions: fraction bound, read-out: PPB (converted)
GSK3B (GSK3 beta) = biological target: T9, GSK3B (GSK3 beta) (Homo sapiens, UniProt P49841); experiment: Kinase panel profiling: GSK3B; format: biochemical; conditions: ATP equal to KM
T9 construct: purchased Thermo Fisher Scientific (Invitrogen) SelectScreen (Z'-LYTE)

DAPK1 = biological target: T10, DAPK1 (Homo sapiens, UniProt P53355); experiment: Kinase panel profiling: DAPK1; format: biochemical; conditions: ATP equal to KM
T10 construct: purchased Thermo Fisher Scientific (Invitrogen) SelectScreen (Z'-LYTE)

FRAP1 (mTOR) = biological target: T11, FRAP1 (mTOR) (Homo sapiens, UniProt P42345); experiment: Kinase panel profiling: FRAP1; format: biochemical; conditions: ATP equal to KM
T11 construct: purchased Thermo Fisher Scientific (Invitrogen) SelectScreen (Z'-LYTE)

DYRK1A = biological target: T12, DYRK1A (Homo sapiens, UniProt Q13627); experiment: Kinase panel profiling: DYRK1A; format: biochemical; conditions: ATP equal to KM
T12 construct: purchased Thermo Fisher Scientific (Invitrogen) SelectScreen (Z'-LYTE)

CHEK1 (CHK1) = biological target: T13, CHEK1 (CHK1) (Homo sapiens, UniProt O14757); experiment: Kinase panel profiling: CHEK1; format: biochemical; conditions: ATP equal to KM
T13 construct: purchased Thermo Fisher Scientific (Invitrogen) SelectScreen (Z'-LYTE)
T13 sequence (O14757 1-476): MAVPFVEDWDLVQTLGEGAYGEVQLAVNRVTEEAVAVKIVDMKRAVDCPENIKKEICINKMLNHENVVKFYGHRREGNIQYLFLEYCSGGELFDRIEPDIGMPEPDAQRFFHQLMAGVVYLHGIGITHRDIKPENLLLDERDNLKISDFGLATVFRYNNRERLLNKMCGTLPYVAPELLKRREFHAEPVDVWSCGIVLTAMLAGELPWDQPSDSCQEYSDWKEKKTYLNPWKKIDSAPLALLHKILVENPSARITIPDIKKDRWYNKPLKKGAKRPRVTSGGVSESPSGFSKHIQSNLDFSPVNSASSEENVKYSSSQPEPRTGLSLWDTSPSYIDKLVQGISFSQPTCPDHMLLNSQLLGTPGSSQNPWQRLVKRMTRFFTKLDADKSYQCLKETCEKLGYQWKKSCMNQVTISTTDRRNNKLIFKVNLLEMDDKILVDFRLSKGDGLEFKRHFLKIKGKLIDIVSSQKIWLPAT

[2] = Human liver microsome intrinsic clearance, Phase I; format: in vitro ADME; conditions: in vitro intrinsic clearance
AURKB (Aurora B) = biological target: T14, AURKB (Aurora B) (Homo sapiens, UniProt Q96GD4); experiment: Kinase panel profiling: AURKB; format: biochemical; conditions: ATP equal to KM
T14 construct: purchased Thermo Fisher Scientific (Invitrogen) SelectScreen (Z'-LYTE)

[3] = system: KIT-positive cell line GIST-T1; experiment: GIST-T1 CellTiter-Glo cell viability assay; format: cell-based; conditions: Homo sapiens, GISTT1; cellular proliferation, GIST-T1, 72 h
FLT4 (VEGFR3) = biological target: T15, FLT4 (VEGFR3) (Homo sapiens, UniProt P35916); experiment: Kinase panel profiling: FLT4; format: biochemical; conditions: ATP equal to KM
T15 construct: purchased Thermo Fisher Scientific (Invitrogen) SelectScreen (Z'-LYTE)

CAMK1D (CaMKI delta) = biological target: T16, CAMK1D (CaMKI delta) (Homo sapiens, UniProt Q8IU85); experiment: Kinase panel profiling: CAMK1D; format: biochemical; conditions: ATP equal to KM
T16 construct: purchased Thermo Fisher Scientific (Invitrogen) SelectScreen (Z'-LYTE)

ABL2 (Arg) = biological target: T17, ABL2 (Arg) (Homo sapiens, UniProt P42684); experiment: Kinase panel profiling: ABL2; format: biochemical; conditions: ATP equal to KM
T17 construct: purchased Thermo Fisher Scientific (Invitrogen) SelectScreen (Z'-LYTE)

PAK1 = biological target: T18, PAK1 (Homo sapiens, UniProt Q13153); experiment: Kinase panel profiling: PAK1; format: biochemical; conditions: ATP equal to KM
T18 construct: purchased Thermo Fisher Scientific (Invitrogen) SelectScreen (Z'-LYTE)

[4] = 1000 nM test concentration, read-out: Average inhibition (%)
[5] = 1000 nM, first data point, read-out: Inhibition (%)
[6] = 1000 nM, second data point, read-out: Inhibition (%)

T18 sequence (Q13153 whole entry): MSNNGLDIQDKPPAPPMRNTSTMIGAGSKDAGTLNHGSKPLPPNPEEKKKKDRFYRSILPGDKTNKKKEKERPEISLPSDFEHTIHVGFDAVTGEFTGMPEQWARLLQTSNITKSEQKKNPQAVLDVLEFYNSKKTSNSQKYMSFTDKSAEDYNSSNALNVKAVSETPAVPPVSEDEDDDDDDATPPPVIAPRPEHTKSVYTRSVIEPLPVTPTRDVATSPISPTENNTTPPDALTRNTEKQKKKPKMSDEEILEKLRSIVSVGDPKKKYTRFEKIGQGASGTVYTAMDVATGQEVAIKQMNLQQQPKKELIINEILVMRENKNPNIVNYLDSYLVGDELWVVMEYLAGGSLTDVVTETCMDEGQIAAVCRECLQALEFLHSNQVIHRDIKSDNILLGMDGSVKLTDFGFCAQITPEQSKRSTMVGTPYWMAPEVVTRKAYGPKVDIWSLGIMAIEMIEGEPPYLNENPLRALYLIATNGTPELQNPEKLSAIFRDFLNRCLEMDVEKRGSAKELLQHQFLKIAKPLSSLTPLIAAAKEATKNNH
T4 sequence (Q9BUB5 whole entry): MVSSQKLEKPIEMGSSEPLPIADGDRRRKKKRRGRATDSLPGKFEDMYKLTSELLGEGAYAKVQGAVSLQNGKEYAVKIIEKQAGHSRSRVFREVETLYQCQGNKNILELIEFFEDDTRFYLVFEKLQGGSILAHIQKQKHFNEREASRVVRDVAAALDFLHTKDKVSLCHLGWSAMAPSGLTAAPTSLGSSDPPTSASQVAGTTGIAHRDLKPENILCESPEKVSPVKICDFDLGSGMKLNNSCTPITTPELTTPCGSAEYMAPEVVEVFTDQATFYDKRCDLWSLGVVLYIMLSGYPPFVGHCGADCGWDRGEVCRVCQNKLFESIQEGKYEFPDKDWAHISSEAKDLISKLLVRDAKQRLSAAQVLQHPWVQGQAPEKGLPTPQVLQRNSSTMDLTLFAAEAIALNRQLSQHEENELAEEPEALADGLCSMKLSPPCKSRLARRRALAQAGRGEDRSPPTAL
T10 sequence (P53355 whole entry): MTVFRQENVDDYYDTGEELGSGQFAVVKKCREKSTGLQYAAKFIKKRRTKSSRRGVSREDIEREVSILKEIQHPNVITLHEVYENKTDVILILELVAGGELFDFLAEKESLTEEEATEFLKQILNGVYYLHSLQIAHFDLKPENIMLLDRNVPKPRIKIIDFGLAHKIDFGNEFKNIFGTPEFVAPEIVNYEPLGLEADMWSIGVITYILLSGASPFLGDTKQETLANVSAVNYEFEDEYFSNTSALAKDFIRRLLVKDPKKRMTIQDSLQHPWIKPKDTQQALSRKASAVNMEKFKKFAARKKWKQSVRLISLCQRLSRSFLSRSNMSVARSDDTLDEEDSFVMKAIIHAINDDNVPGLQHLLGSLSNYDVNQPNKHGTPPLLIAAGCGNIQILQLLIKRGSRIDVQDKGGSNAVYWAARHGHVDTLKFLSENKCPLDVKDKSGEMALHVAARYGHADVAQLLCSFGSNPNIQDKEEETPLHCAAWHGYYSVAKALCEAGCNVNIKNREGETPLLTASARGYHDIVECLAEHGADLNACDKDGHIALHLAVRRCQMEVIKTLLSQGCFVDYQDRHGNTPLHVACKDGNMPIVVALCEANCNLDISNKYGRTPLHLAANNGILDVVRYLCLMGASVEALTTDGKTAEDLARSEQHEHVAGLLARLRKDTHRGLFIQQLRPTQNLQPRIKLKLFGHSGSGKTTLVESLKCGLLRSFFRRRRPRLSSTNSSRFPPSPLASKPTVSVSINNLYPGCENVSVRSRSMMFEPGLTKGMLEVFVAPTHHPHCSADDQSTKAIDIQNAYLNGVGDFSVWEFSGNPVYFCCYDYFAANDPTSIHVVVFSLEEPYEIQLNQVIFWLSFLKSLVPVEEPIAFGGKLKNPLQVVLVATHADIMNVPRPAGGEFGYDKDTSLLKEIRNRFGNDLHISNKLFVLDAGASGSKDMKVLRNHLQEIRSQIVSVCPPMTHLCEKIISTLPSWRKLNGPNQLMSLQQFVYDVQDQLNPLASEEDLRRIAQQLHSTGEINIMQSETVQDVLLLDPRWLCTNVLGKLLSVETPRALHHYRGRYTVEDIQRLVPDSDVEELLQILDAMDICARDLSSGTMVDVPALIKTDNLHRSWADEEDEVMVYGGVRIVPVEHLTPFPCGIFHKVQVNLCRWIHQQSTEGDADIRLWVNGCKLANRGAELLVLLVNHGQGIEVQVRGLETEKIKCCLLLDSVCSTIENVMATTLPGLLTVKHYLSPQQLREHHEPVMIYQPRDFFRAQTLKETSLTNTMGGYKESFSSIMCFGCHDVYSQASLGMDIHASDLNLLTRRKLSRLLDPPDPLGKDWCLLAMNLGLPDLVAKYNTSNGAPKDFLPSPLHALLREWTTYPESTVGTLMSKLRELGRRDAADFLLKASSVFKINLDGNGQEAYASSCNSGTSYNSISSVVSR
PDGFRB (PDGFR beta), sequence (P09619 33-1106): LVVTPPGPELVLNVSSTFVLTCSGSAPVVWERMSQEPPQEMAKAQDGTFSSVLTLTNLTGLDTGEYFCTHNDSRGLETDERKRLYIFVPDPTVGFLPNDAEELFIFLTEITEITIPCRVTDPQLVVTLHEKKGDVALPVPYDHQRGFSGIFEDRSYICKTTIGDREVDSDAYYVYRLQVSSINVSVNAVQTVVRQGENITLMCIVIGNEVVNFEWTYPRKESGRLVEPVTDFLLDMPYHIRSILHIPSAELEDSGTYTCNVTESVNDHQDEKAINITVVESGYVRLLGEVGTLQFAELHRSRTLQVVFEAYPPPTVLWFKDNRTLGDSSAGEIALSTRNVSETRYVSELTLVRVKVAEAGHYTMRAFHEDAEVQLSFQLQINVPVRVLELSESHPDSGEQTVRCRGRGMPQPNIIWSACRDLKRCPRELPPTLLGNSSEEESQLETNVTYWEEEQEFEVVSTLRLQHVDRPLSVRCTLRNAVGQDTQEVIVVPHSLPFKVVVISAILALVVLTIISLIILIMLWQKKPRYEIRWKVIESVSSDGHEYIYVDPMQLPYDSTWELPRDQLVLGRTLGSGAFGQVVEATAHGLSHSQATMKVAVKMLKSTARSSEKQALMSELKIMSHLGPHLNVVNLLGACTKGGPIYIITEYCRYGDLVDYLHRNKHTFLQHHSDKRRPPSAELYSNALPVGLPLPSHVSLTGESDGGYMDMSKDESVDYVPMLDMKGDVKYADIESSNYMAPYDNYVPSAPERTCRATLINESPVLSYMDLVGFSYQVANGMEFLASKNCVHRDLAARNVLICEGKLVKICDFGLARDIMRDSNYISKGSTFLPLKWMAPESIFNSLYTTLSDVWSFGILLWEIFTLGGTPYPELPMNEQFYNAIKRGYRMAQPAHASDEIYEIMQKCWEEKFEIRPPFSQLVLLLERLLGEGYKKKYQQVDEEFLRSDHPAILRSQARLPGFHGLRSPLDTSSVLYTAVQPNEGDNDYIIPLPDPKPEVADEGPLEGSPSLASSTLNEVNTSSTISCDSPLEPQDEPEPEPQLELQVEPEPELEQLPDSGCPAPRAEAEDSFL
T8 sequence (P10721 26-976): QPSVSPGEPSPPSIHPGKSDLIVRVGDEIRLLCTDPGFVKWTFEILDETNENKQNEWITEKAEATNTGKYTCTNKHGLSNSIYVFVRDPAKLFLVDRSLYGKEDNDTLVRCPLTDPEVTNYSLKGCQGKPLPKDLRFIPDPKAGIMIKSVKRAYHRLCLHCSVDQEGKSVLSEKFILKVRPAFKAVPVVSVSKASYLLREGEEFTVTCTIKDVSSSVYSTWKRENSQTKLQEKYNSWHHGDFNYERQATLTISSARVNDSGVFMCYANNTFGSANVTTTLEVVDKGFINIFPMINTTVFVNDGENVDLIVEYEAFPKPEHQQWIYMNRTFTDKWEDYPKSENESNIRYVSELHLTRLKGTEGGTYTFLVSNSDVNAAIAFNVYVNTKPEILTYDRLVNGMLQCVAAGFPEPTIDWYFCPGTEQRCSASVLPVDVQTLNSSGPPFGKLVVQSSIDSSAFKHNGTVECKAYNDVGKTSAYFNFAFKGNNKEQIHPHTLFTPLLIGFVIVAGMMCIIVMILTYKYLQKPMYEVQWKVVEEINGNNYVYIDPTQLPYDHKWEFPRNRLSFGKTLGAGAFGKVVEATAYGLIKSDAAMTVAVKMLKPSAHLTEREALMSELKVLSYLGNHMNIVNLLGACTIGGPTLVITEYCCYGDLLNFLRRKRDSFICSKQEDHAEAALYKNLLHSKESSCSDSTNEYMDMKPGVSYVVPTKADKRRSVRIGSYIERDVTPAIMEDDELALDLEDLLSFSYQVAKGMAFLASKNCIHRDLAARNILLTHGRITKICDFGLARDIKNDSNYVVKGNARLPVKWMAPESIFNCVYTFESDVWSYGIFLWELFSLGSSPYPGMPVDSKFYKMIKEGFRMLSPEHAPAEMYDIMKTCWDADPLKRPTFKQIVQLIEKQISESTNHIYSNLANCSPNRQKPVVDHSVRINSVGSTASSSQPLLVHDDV
T14 sequence (Q96GD4 whole entry): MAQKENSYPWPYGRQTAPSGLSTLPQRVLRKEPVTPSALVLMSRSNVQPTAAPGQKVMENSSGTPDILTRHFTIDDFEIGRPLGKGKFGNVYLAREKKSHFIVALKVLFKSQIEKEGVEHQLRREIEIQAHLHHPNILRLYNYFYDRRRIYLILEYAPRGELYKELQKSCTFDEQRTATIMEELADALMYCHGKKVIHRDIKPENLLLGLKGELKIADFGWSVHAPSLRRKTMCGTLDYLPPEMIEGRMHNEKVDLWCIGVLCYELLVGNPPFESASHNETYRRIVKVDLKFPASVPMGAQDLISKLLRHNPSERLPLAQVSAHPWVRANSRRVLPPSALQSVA
T3 sequence (P10721 26-976): as the sequence (P10721 26-976) above

Cc1cccc(CN(C)c2ncnc3[nH]c(-c4cn(Cc5cccnc5)nn4)cc23)c1 [Compound 27a, N-Methyl-N-(3-methylbenzyl)-6-(1-(pyridin-3-ylmethyl)-1H-1,2,3-triazol-4-yl)-7H-pyrrolo[2,3-d]pyrimidin-4-amine]
inhibition at 1 µM (MET (cMet); [4]): 13% | inhibition at 1 µM (MET (cMet); [5]): 10% | inhibition at 1 µM (MET (cMet); [6]): 16% | inhibition at 1 µM (PDGFRB (PDGFR beta); [4]): 34% | inhibition at 1 µM (PDGFRB (PDGFR beta); [5]): 32% | inhibition at 1 µM (PDGFRB (PDGFR beta); [6]): 35% | inhibition at 1 µM (BLK; [4]): 69% | inhibition at 1 µM (BLK; [5]): 69% | Kd (cKIT kinase): 0.793 µM | inhibition at 1 µM (ROCK1; [4]): 0% | inhibition at 1 µM (ROCK1; [5]): 2% | inhibition at 1 µM (ROCK1; [6]): -2% | inhibition at 1 µM (MKNK1 (MNK1); [4]): 2% | inhibition at 1 µM (MKNK1 (MNK1); [5]): 3% | inhibition at 1 µM (MKNK1 (MNK1); [6]): 1% | inhibition at 1 µM (FER; [4]): 15% | inhibition at 1 µM (FER; [5]): 16% | inhibition at 1 µM (FER; [6]): 14% | Papp A→B (MDCK permeability assay; A-B direction): 1.27 ×10⁻⁶ cm/s | Papp B→A (MDCK permeability assay; B-A direction): 3.18 ×10⁻⁶ cm/s | efflux ratio (MDCK permeability assay; read-out: Ratio Papp B > A/Papp A > B): 2.5 | inhibition at 1 µM (NEK1; [4]): 28% | inhibition at 1 µM (NEK1; [5]): 28% | inhibition at 1 µM (EPHA2; [4]): 89% | inhibition at 1 µM (EPHA2; [5]): 88% | inhibition at 1 µM (EPHA2; [6]): 91% | inhibition at 1 µM (KIT; [4]): 57% | inhibition at 1 µM (KIT; [5]): 56% | inhibition at 1 µM (KIT; [6]): 58% | fraction unbound [1]: < 0.01 | inhibition at 1 µM (GSK3B (GSK3 beta); [4]): 61% | inhibition at 1 µM (GSK3B (GSK3 beta); [5]): 59% | inhibition at 1 µM (GSK3B (GSK3 beta); [6]): 62% | inhibition at 1 µM (DAPK1; [4]): 4% | inhibition at 1 µM (DAPK1; [5]): 13% | inhibition at 1 µM (DAPK1; [6]): -5% | inhibition at 1 µM (FRAP1 (mTOR); [4]): -3% | inhibition at 1 µM (FRAP1 (mTOR); [5]): -4% | inhibition at 1 µM (FRAP1 (mTOR); [6]): -2% | inhibition at 1 µM (DYRK1A; [4]): 5% | inhibition at 1 µM (DYRK1A; [5]): 5% | inhibition at 1 µM (DYRK1A; [6]): 4% | inhibition at 1 µM (CHEK1 (CHK1); [4]): 5% | inhibition at 1 µM (CHEK1 (CHK1); [5]): 0% | inhibition at 1 µM (CHEK1 (CHK1); [6]): 9% | HLM [2]: 53.7 µL/min/mg | inhibition at 1 µM (AURKB (Aurora B); [4]): 47% | inhibition at 1 µM (AURKB (Aurora B); [5]): 47% | inhibition at 1 µM (AURKB (Aurora B); [6]): 46% | IC50 [3]: > 30 µM | inhibition at 1 µM (FLT4 (VEGFR3); [4]): 16% | inhibition at 1 µM (FLT4 (VEGFR3); [5]): 15% | inhibition at 1 µM (FLT4 (VEGFR3); [6]): 16% | inhibition at 1 µM (CAMK1D (CaMKI delta); [4]): 5% | inhibition at 1 µM (CAMK1D (CaMKI delta); [5]): 2% | inhibition at 1 µM (CAMK1D (CaMKI delta); [6]): 9% | inhibition at 1 µM (ABL2 (Arg); [4]): 100% | inhibition at 1 µM (ABL2 (Arg); [5]): 100% | inhibition at 1 µM (PAK1; [4]): 2% | inhibition at 1 µM (PAK1; [5]): 4% | inhibition at 1 µM (PAK1; [6]): 0%
